One test concerns ELIC. As to conditions: cited from earlier work.
In another test the test system is WT ELIC. The experiment in a line: Asymmetric liposome stopped-flow Tl+ flux assay (no exchange vs exchange, 25 mol% outer leaflet POPG). As to conditions: for Tl+ flux quenching rate, Avg. / Tl+ flux quenching rate: No-exchange: WT in 3:1 PC:PE with just beta-CD, 10 mM propylamine; for Tl+ flux quenching rate: single experiments. On the set-up: key to Tl+ flux quenching rate, Avg. / Tl+ flux quenching rate: Tl+ influx rate kt at 2 ms from stretched-exponential fit (Eq. 2b). It counts as biochemical, Erwinia chrysanthemi. As for the experimental part: The fluorescence sequential-mixing stopped-flow liposomal flux measurements were carried using an SX20 stopped-flow spectrofluorometer (Applied Photophysics) and Pro-Data SX software[13],[30]. 7.5 mg of the respective lipid mixture (POPC, 1:1 POPC: POPE, 1:1 POPC:POPG, 3:1 POPC:POPE, 3:1 POPC:POPG, 2:1:1 POPC:POPE:POPG) was dried in a glass vial to a thin film under a constant stream of N2. The lipids were then further dried under vacuum in a desiccator overnight. The following day the lipids were hydrated in 500 µl of reconstitution buffer (100 mM NaNO3, 10 mM HEPES, pH 7) (Buffer R), 250 µl of 75 mM 8-Aminonaphthalene-1,3,6-Trisulfonic Acid (ANTS, ThermoFisher Scientific) in buffer R, and doped with ~18 mg of CHAPS (Anatrace). The mixture was vortexed and then sonicated with heat until completely solubilized. Following the sonication, the solution was brought to RT then 3.5 µl of 6.7 mg/ml ELIC in Buffer A with 0.02% DDM was added (3 µg per mg of lipid). This combined solution was incubated at RT for 30 min, followed by the addition of 1 ml of 1:1 v/v SM-2 BioBeads in Buffer R and an additional 250 µl of 75 mM ANTS in Buffer R. This mixture was incubated at RT for 2.5 hr with gentle mixing. The liposome suspension was then extruded with an Avanti mini-extruder and 0.1 µm membrane (30×). The extruded liposomes were stored at 13 °C overnight with gentle rotation. The next day, the liposomes were diluted to 2.5 mL using assay buffer (140 mM NaNO3, 10 mM HEPES, pH 7) (Stopped-flow Buffer A), loaded into a PD-10 desalting column (Cytiva), eluted with 3 mL of Stopped-flow Buffer A and subsequently diluted 5-fold with Stopped-flow Buffer A.
Using propylamine as the agonist, the assay and analysis was carried out as previously described[13],[30]. ELIC-containing liposomes were first mixed 1:1 with Buffer A containing 2× the concentration of propylamine. After a variable delay of 10 ms to 25 s, the sample was then mixed 1:1 with a quenching buffer (90 mM NaNO3, 50 mM TlNO3, 10 mM HEPES, pH 7), and ANTS fluorescence (ex. 360 nm, fluorescence above 420 nm) was recorded for 1 s. For each delay time, 5 repeat measurements were obtained. The data were collected using Applied Photophysics Pro-Data SX software. The fluorescence quenching traces were fit to a stretched exponential (Eq. 2a) and the rate of Tl^+ influx was determined at 2 ms (Eq. 2b).2a Ft=F∞+F0−F∞⋅e^−t/τ^β 2b kt=β/τ⋅2ms/τ^(β−1) where Ft, F∞, F0 are the fluorescence at time t, final fluorescence and initial fluorescence. τ is the time constant, β the stretched exponential factor, and kt the calculated rate of Tl^+ influx at 2 ms. The time course of desensitization was also fit to a double exponential and a weighted time constant was calculated as was done for the patch-clamp data using Origin 2019b. All replicates were taken from independent samples.
Acceptor liposomes were prepared as described in the Stopped-flow fluorescence recordings section until completion of the extrusion step. The preparation was scaled up 2x to produce samples for the no-exchange and exchange conditions. After extrusion and storage of the liposomes overnight at 13 °C, the double liposome preparation was split into two equal volume aliquots of ~1.5 ml. Using the excel spreadsheet provided by Markones et al.[44], donor POPG and methyl-β-cyclodextrin (MβCD, Sigma) concentrations and volumes were calculated to produce an outer leaflet POPG content of 25 mol% in the liposomes. The calculations assumed a ~6.66 mM lipid concentration and 1.5 mL volume of the acceptor liposome solution[44]. A MβCD-POPG (50% saturation of MβCD by POPG) solution was formed by combining 224 µL 7.5 mM POPG in Stopped-flow Buffer A, 650 µl 300 mM MβCD in Stopped-flow Buffer A, and 126 µL Stopped-flow Buffer A, which was then mixed at 50 °C and 1000 RPM for 20 min using an Eppendorf thermomixer. […]

“And” between values parts separate entries of the source, which are not always exact repeats. Equal entries are not always repeated.

Here are results for three compounds from publication PMC9668969 (Nature Communications, 2022).

`CC/C=C\C/C=C\C/C=C\C/C=C\C/C=C\C/C=C\CCC(=O)O` [DHA, docosahexaenoic acid]: the “effect on ELIC agonist response” value in the test on ELIC was “decreases peak agonist response and increases desensitization”.
Consider cardiolipin, for which the “effect on ELIC” value with ELIC is listed as “positively modulates ELIC”.
For the compound methyl-β-cyclodextrin, the “Tl+ flux quenching rate, Avg.” value was found to be 12.9647 in the test with WT ELIC (delay 0.01 s); 13.7625 with WT ELIC (delay 0.025 s); 18.86 with WT ELIC (delay 0.05 s); 31.5581 in the test with WT ELIC (delay 0.1 s); 29.5756 in the test with WT ELIC (delay 0.25 s); 31.8845 with WT ELIC (delay 0.5 s). The “Tl+ flux quenching rate, Avg.” value with WT ELIC (delay 1 s) is given as 34.9406; in the test on WT ELIC (delay 2.5 s), 21.2322; with WT ELIC (delay 5 s), 10.788; with WT ELIC (delay 10 s) it was 2.374; in the test on WT ELIC (delay 25 s) it was 1.305. Also, the “effect on ELIC responses” value with WT ELIC (methyl-β-cyclodextrin alone, 3:1 POPC:POPE liposomes) is reported as “did not alter ELIC responses”. Also, the “Tl+ flux quenching rate” value with WT ELIC (delay 0.025 s) was 9.097 and 18.0228 and 11.9906 and 15.9401; with WT ELIC (delay 0.25 s), 35.4461 and 38.8846 and 20.2406 and 23.7309; in the test with WT ELIC (delay 2.5 s), 25.1548 and 26.3221 and 15.7795 and 17.6721; in the test on WT ELIC (delay 5 s), 10.4577 and 9.241 and 15.1687 and 8.284.
